Among the data in PubChem BioAssay (NCI) are TGI and GI50 values, retold here.

Some test systems named below: 786-0 renal; CAKI-1 renal; COLO 205 colon; SK-MEL-2 melanoma; MOLT-4 leukemia; SF-268 CNS; SK-OV-3 ovarian; HOP-92 NSCLC; HS 578T breast; T-47D breast.
Test in all cases: NCI anticancer screen, dose series, 48 h

Molecules are shown by their SMILES.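 Five concentrations, 48 hours, 96-well plates. GI50 marks 50% less growth. TGI: concentration producing complete growth inhibition.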 Some results are limits rather than exact numbers.

As to `c1ccc(SC(Sc2ccccc2)=C2CCC2)cc1`, the TGI in the experiment with 786-0 renal, in the experiment with CAKI-1 renal, in the experiment on COLO 205 colon, in the experiment with SK-MEL-2 melanoma, in the experiment with MOLT-4 leukemia and in the experiment with SF-268 CNS was greater than 100 µM in each case. Besides, the TGI in the experiment with SK-OV-3 ovarian and with HOP-92 NSCLC was greater than 100 µM in each case.

For the compound `CCC[CH2][Sn](=[O])[CH2]CCC`, the GI50 in the experiment with 786-0 renal was greater than 50 µM; in the experiment with CAKI-1 renal it was greater than 35.1 µM; with COLO 205 colon, greater than 50 µM; with SK-MEL-2 melanoma, greater than 50 µM; in the experiment with MOLT-4 leukemia it was greater than 50 µM; with SF-268 CNS it was greater than 50 µM. Further, the GI50 with SK-OV-3 ovarian was greater than 50 µM; in the experiment on HOP-92 NSCLC it was 31.9 µM. The TGI in the experiment on 786-0 renal, in the experiment with CAKI-1 renal, in the experiment on COLO 205 colon, in the experiment on SK-MEL-2 melanoma, with MOLT-4 leukemia and with SF-268 CNS was greater than 50 µM each time. In addition, the TGI in the experiment on SK-OV-3 ovarian and in the experiment with HOP-92 NSCLC was greater than 50 µM throughout.

In the case of `O=C1c2ccccc2C(=O)N1CCc1ncc(-c2ccccc2)[nH]1`, the TGI in the experiment on 786-0 renal, with CAKI-1 renal, with HS 578T breast, in the experiment with COLO 205 colon, in the experiment with SK-MEL-2 melanoma and in the experiment with MOLT-4 leukemia was greater than 100 µM throughout. The TGI in the experiment on SF-268 CNS and in the experiment on SK-OV-3 ovarian was greater than 100 µM throughout.

`CN(C)c1ccc(/C=c2\sc3nnc(-c4ccco4)n3c2=O)cc1`: the TGI with 786-0 renal, with CAKI-1 renal, in the experiment on COLO 205 colon, in the experiment with SK-MEL-2 melanoma, in the experiment with MOLT-4 leukemia and with SF-268 CNS was greater than 100 µM each time. The TGI with SK-OV-3 ovarian and with HOP-92 NSCLC was greater than 100 µM in each case.

Take `CCCCCCCCCCCCSC(=S)c1c(C)[nH]n(-c2ccccc2)c1=O`: the TGI is greater than 50 µM in the experiment with 786-0 renal; greater than 50 µM with CAKI-1 renal; greater than 50 µM in the experiment on COLO 205 colon; 46.1 µM with MOLT-4 leukemia; greater than 50 µM in the experiment on SF-268 CNS; greater than 50 µM in the experiment with SK-OV-3 ovarian. Further, in the experiment with HOP-92 NSCLC, the TGI was greater than 50 µM.

As for `CSc1cc([C@@H]2C[C@H]2c2ccc(Cl)cc2)on1`, the GI50 in the experiment on 786-0 renal was 15 µM; with T-47D breast, 22.2 µM; in the experiment on CAKI-1 renal, 12.5 µM; in the experiment with COLO 205 colon, 23.9 µM; in the experiment on SK-MEL-2 melanoma it was 25.2 µM; in the experiment on MOLT-4 leukemia, 28.6 µM. The GI50 in the experiment with SF-268 CNS is 21 µM; in the experiment on SK-OV-3 ovarian it was 50.6 µM; in the experiment on HOP-92 NSCLC, 7.97 µM. For the same compound, the TGI in the experiment with 786-0 renal is 55.3 µM; in the experiment on T-47D breast, greater than 100 µM; with CAKI-1 renal it was 35.7 µM; in the experiment with COLO 205 colon it was greater than 100 µM; with SK-MEL-2 melanoma, 82.3 µM; in the experiment with MOLT-4 leukemia it was greater than 100 µM. Moreover, the results for the TGI in the experiment with SF-268 CNS, in the experiment on SK-OV-3 ovarian and with HOP-92 NSCLC were 46.3 µM, greater than 100 µM and 27.3 µM, respectively.

Consider `CC(C)(C)C(=O)N1C(C(=O)O)Cc2ccccc2[C@@H]1Cc1ccccc1` (stereo not given in full), for which the TGI in the experiment on 786-0 renal, with CAKI-1 renal, with COLO 205 colon, with SK-MEL-2 melanoma, in the experiment on MOLT-4 leukemia and with SF-268 CNS was greater than 100 µM in each case. The TGI in the experiment with SK-OV-3 ovarian and in the experiment on HOP-92 NSCLC was greater than 100 µM in each case.

On to `Cc1ccc(NCC2(/N=C/c3ccccc3)OC(CO)C(O)C2O)cc1` (stereo not given), for which the TGI in the experiment with 786-0 renal, in the experiment with CAKI-1 renal, in the experiment on COLO 205 colon, in the experiment on SK-MEL-2 melanoma, in the experiment with MOLT-4 leukemia and in the experiment on SF-268 CNS was greater than 100 µM each time. In addition, the TGI in the experiment with HOP-92 NSCLC is greater than 100 µM.

With `CC(Oc1ccc2c(-c3ccc(Cl)cc3)cc(=O)oc2c1)C(=O)O` (stereo not given), the TGI with 786-0 renal, with CAKI-1 renal, in the experiment on COLO 205 colon, in the experiment with MOLT-4 leukemia, in the experiment on SF-268 CNS and with SK-OV-3 ovarian was greater than 100 µM throughout. The TGI in the experiment with HOP-92 NSCLC was greater than 100 µM.

`COc1ccc2c(c1)c(-c1nc(-c3cn(C)c4ccncc34)cs1)cn2C`: the GI50 in the experiment with 786-0 renal is 1.6 µM; in the experiment on CAKI-1 renal, 1.8 µM; in the experiment with SK-MEL-2 melanoma it was 1.76 µM; in the experiment with SF-268 CNS it was 2.07 µM; in the experiment with SK-OV-3 ovarian it was 2.52 µM; in the experiment with HOP-92 NSCLC it was 1.96 µM. The TGI in the experiment with 786-0 renal was determined as 3.15 µM; in the experiment on CAKI-1 renal, 3.26 µM; in the experiment with SK-MEL-2 melanoma, 3.28 µM; in the experiment on SF-268 CNS, 4.4 µM; with SK-OV-3 ovarian, 5.12 µM; in the experiment with HOP-92 NSCLC it was 3.79 µM.

Turning to `CN(C)c1ccc(/C=N/NC(N)=S)nc1`, the GI50 with 786-0 renal is 3.33 µM; in the experiment on T-47D breast it was 4.32 µM; with COLO 205 colon, 4.27 µM; in the experiment with SK-MEL-2 melanoma, greater than 100 µM; in the experiment on MOLT-4 leukemia, 2.92 µM; in the experiment on SF-268 CNS, 2.22 µM. The GI50 is 4.5 µM in the experiment with SK-OV-3 ovarian and greater than 100 µM in the experiment on HOP-92 NSCLC. For the same compound, the TGI in the experiment with 786-0 renal was 9.68 µM; with T-47D breast it was greater than 100 µM; in the experiment on COLO 205 colon, greater than 100 µM; in the experiment with SK-MEL-2 melanoma, greater than 100 µM; in the experiment on MOLT-4 leukemia, 95.1 µM; with SF-268 CNS, 28.2 µM. In addition, the TGI in the experiment with SK-OV-3 ovarian and with HOP-92 NSCLC was greater than 100 µM each time.

Consider `Nc1nc(=O)n(C2CCC(CO)O2)cc1F` (stereo not given), for which the TGI with 786-0 renal, in the experiment with CAKI-1 renal, in the experiment with COLO 205 colon, in the experiment on SK-MEL-2 melanoma, with MOLT-4 leukemia and in the experiment with SF-268 CNS was greater than 100 µM throughout. Moreover, the TGI with SK-OV-3 ovarian and with HOP-92 NSCLC was greater than 100 µM in each case.

Consider `COc1ccc(/C=C/c2cc(OC)c(OC(C)=O)c(OC)c2)cc1`, for which the TGI in the experiment with 786-0 renal is greater than 100 µM; in the experiment with COLO 205 colon it was greater than 100 µM; in the experiment on SK-MEL-2 melanoma, greater than 100 µM; with MOLT-4 leukemia, 95.9 µM; in the experiment with SF-268 CNS, greater than 100 µM; in the experiment with SK-OV-3 ovarian, greater than 100 µM. Further, the TGI with HOP-92 NSCLC was 65.1 µM.
